Results from DBAASP.
In brackets after ≈: the same amount, converted by molar mass.

Legend:
Assay in all cases: ≥ marks a high value that may be exact or a test limit, other limits are often not marked, values filed in µg/mL are converted to µM
Escherichia coli JW0013 = test system: Escherichia coli JW0013
Escherichia coli B = test system: Escherichia coli B
Pseudomonas aeruginosa = test system: Pseudomonas aeruginosa
Bacillus subtilis 168 = test system: Bacillus subtilis 168
Staphylococcus aureus = test system: Staphylococcus aureus
[1] = test system: Escherichia coli DH5alpha
[2] = test system: Staphylococcus aureus NCTC 8325

Compound | MIC (Escherichia coli JW0013) | MIC (Escherichia coli B) | MIC (Pseudomonas aeruginosa) | MIC (Bacillus subtilis 168) | MIC (Staphylococcus aureus) | other results
CC[C@H](C)[C@H](NC(=O)[C@H](CCCN=C(N)N)NC(=O)[C@H](CCCN=C(N)N)NC(=O)[C@@H]1CCCN1C(=O)[C@@H]1CCCN1C(=O)[C@H](CCCN=C(N)N)NC(=O)[C@@H]1CCCN1C(=O)[C@H](CCCN=C(N)N)NC(=O)[C@@H]1CCCN1C(=O)[C@H](CC(C)C)NC(=O)[C@H](Cc1ccc(O)cc1)NC(=O)[C@@H]1CCCN1C(=O)[C@H](Cc1cnc[nH]1)NC(=O)[C@H](CCCCN)NC(=O)[C@H](CC(=O)O)NC(=O)[C@@H](N)C(C)C)C(=O)N[C@@H](Cc1ccc(O)cc1)C(=O)N[C@@H](CC(N)=O)C(=O)N[C@@H](CCCN=C(N)N)C(N)=O [VDKHPYLPRPRPPRRIYNR] | 1.97 µM (≈ 4.8 µg/mL) | – | – | – | – | –
CC[C@H](C)[C@H](NC(=O)[C@H](CCCCN)NC(=O)[C@H](CCCCN)NC(=O)[C@H](Cc1c[nH]c2ccccc12)NC(=O)[C@H](CC(N)=O)NC(=O)[C@@H](N)C(C)C)C(=O)N[C@@H](CC(C)C)C(=O)N[C@@H](CCCCN)C(=O)N[C@@H](CCCCN)C(=O)N[C@H](C(=O)N[C@H](C(=O)N[C@@H](CCCCN)C(=O)N[C@H](C(=O)N[C@H](C(=O)N[C@@H](CCCCN)C(N)=O)C(C)C)C(C)C)[C@@H](C)CC)[C@@H](C)CC [VNWKKILKKIIKVVK] | – | 0.7 µM (≈ 1.29 µg/mL) | 26.1 µM (≈ 47.9 µg/mL) | 0.7 µM (≈ 1.29 µg/mL) | 9.6 µM (≈ 17.6 µg/mL) | –
CC[C@H](C)[C@H](NC(=O)[C@H](CCCN=C(N)N)NC(=O)[C@H](CCCN=C(N)N)NC(=O)[C@@H]1CCCN1C(=O)[C@@H]1CCCN1C(=O)[C@H](CCCN=C(N)N)NC(=O)[C@@H]1CCCN1C(=O)[C@H](CCCN=C(N)N)NC(=O)[C@@H]1CCCN1C(=O)[C@H](CC(C)C)NC(=O)[C@H](CCCN=C(N)N)NC(=O)[C@H](Cc1cnc[nH]1)NC(=O)[C@H](CCCCN)NC(=O)[C@H](CCCCN)NC(=O)[C@H](CC(=O)O)NC(=O)[C@@H](N)C(C)C)C(=O)N[C@@H](Cc1ccc(O)cc1)C(=O)N[C@@H](CC(N)=O)C(=O)N[C@@H](CCCN=C(N)N)C(N)=O [VDKKHRLPRPRPPRRIYNR] | 0.978 µM (≈ 2.4 µg/mL) | – | – | – | – | –
CC[C@H](C)[C@H](NC(=O)[C@H](CCCN=C(N)N)NC(=O)[C@H](CCCN=C(N)N)NC(=O)[C@@H]1CCCN1C(=O)[C@@H]1CCCN1C(=O)[C@H](CCCN=C(N)N)NC(=O)[C@@H]1CCCN1C(=O)[C@H](CCCN=C(N)N)NC(=O)[C@@H]1CCCN1C(=O)[C@H](CCCN=C(N)N)NC(=O)[C@H](Cc1ccc(O)cc1)NC(=O)[C@H](Cc1cnc[nH]1)NC(=O)[C@H](CCCN=C(N)N)NC(=O)[C@H](CCCCN)NC(=O)[C@H](CC(=O)O)NC(=O)[C@@H](N)C(C)C)C(=O)N[C@@H](Cc1ccc(O)cc1)C(=O)N[C@@H](CC(N)=O)C(=O)N[C@@H](CCCN=C(N)N)C(N)=O [VDKRHYRPRPRPPRRIYNR] | 0.316 µM (≈ 0.8 µg/mL) | – | – | – | – | –
CC(C)C[C@H](NC(=O)[C@H](CCCCN)NC(=O)[C@H](CCCCN)NC(=O)[C@H](CC(C)C)NC(=O)[C@H](CC(C)C)NC(=O)[C@H](CCCCN)NC(=O)[C@H](CCCCN)NC(=O)[C@H](CC(C)C)NC(=O)[C@H](CC(C)C)NC(=O)[C@H](CCCCN)NC(=O)[C@H](CCCCN)NC(=O)[C@H](CC(C)C)NC(=O)[C@H](CC(C)C)NC(=O)CN)C(N)=O [GLLKKLLKKLLKKL] | – | – | – | 2 µM (≈ 3.27 µg/mL) | – | MIC [1]: 6 µM (≈ 9.81 µg/mL)
CC[C@H](C)[C@H](NC(=O)[C@H](CCCN=C(N)N)NC(=O)[C@H](CCCN=C(N)N)NC(=O)[C@@H]1CCCN1C(=O)[C@@H]1CCCN1C(=O)[C@H](CCCN=C(N)N)NC(=O)[C@@H]1CCCN1C(=O)[C@H](CCCN=C(N)N)NC(=O)[C@@H]1CCCN1C(=O)[C@H](CC(C)C)NC(=O)[C@H](Cc1ccc(O)cc1)NC(=O)[C@@H]1CCCN1C(=O)[C@@H]1CCCN1C(=O)[C@H](CCCCN)NC(=O)[C@H](CC(=O)O)NC(=O)[C@H](C)N)C(=O)N[C@@H](Cc1ccc(O)cc1)C(=O)N[C@@H](CC(N)=O)C(=O)N[C@@H](CCCN=C(N)N)C(N)=O [ADKPPYLPRPRPPRRIYNR] | 2.03 µM (≈ 4.8 µg/mL) | – | – | – | – | –
CC[C@H](C)[C@H](NC(=O)[C@H](CCCN=C(N)N)NC(=O)[C@H](CCCN=C(N)N)NC(=O)[C@@H]1CCCN1C(=O)[C@@H]1CCCN1C(=O)[C@H](CCCN=C(N)N)NC(=O)[C@H](CCCCN)NC(=O)[C@H](CCCN=C(N)N)NC(=O)[C@@H]1CCCN1C(=O)[C@H](CC(C)C)NC(=O)[C@H](CCCN=C(N)N)NC(=O)[C@@H]1CCCN1C(=O)[C@H](CCCN=C(N)N)NC(=O)[C@H](CCCCN)NC(=O)[C@H](CC(=O)O)NC(=O)[C@@H](N)C(C)C)C(=O)N[C@@H](Cc1ccc(O)cc1)C(=O)N[C@@H](CC(N)=O)C(=O)N[C@@H](CCCN=C(N)N)C(N)=O [VDKRPRLPRKRPPRRIYNR] | 0.647 µM (≈ 1.6 µg/mL) | – | – | – | – | –
CC[C@H](C)[C@H](NC(=O)[C@H](Cc1cnc[nH]1)NC(=O)[C@H](CCCCN)NC(=O)[C@H](CC(C)C)NC(=O)[C@H](CC(C)C)NC(=O)[C@H](CO)NC(=O)[C@H](CCSC)NC(=O)[C@H](Cc1ccccc1)NC(=O)[C@H](CCCCN)NC(=O)CN)C(=O)N[C@@H](CC(C)C)C(=O)N[C@@H](CCCCN)C(N)=O [GKFMSLLKHILK] | – | 5.8 µM (≈ 8.2 µg/mL) | 30 µM (≈ 42.4 µg/mL) | 1.5 µM (≈ 2.12 µg/mL) | 43.3 µM (≈ 61.2 µg/mL) | –
CC(C)C[C@H](NC(=O)[C@H](CCCN=C(N)N)NC(=O)[C@@H]1CCCN1C(=O)[C@@H]1CCCN1C(=O)[C@H](CCCN=C(N)N)NC(=O)[C@@H]1CCCN1C(=O)[C@H](CCCN=C(N)N)NC(=O)[C@H](CCCN=C(N)N)NC(=O)[C@H](CCCN=C(N)N)NC(=O)[C@@H](N)CCCN=C(N)N)C(=O)N1CCC[C@H]1C(=O)N[C@@H](CCCN=C(N)N)C(=O)N1CCC[C@H]1C(=O)N[C@@H](CCCN=C(N)N)C(=O)N1CCC[C@H]1C(=O)N[C@@H](CCCN=C(N)N)C(=O)O [RRRRPRPPRLPRPRPR] | 0.3 µM (≈ 0.636 µg/mL) | – | – | – | – | –
CC(C)C[C@H](NC(=O)[C@@H](NC(=O)[C@H](CCCCN)NC(=O)[C@H](CO)NC(=O)[C@H](CC(C)C)NC(=O)[C@H](CC(C)C)NC(=O)[C@@H](NC(=O)[C@H](C)NC(=O)[C@H](CC(C)C)NC(=O)[C@H](Cc1ccccc1)NC(=O)[C@@H]1CCCN1C(=O)[C@H](CC(C)C)NC(=O)[C@@H](N)Cc1ccccc1)[C@@H](C)O)C(C)C)C(N)=O [FLPFLATLLSKVL] | – | – | – | – | – | MIC [2]: ≥ 100 µM
CC[C@H](C)[C@H](NC(=O)[C@H](CCCCN)NC(=O)CNC(=O)[C@H](CC(C)C)NC(=O)[C@@H](NC(=O)[C@H](CCCCN)NC(=O)[C@H](CCCCN)NC(=O)[C@H](Cc1c[nH]c2ccccc12)NC(=O)[C@H](CC(N)=O)NC(=O)[C@@H](N)C(C)C)[C@@H](C)CC)C(N)=O [VNWKKILGKI] | – | 23.3 µM (≈ 27.9 µg/mL) | 75 µM (≈ 89.8 µg/mL) | 4.7 µM (≈ 5.63 µg/mL) | > 100 µM | –
CC[C@H](C)[C@H](NC(=O)[C@H](Cc1cnc[nH]1)NC(=O)[C@H](CCCCN)NC(=O)[C@H](CC(C)C)NC(=O)[C@H](CC(C)C)NC(=O)[C@H](Cc1cnc[nH]1)NC(=O)[C@H](CCSC)NC(=O)[C@H](Cc1c[nH]c2ccccc12)NC(=O)[C@H](CCCCN)NC(=O)CN)C(=O)N[C@@H](CC(C)C)C(=O)N[C@@H](CCCCN)C(N)=O [GKWMHLLKHILK] | – | 2.2 µM (≈ 3.31 µg/mL) | 46.7 µM (≈ 70.2 µg/mL) | 1.1 µM (≈ 1.65 µg/mL) | 12.5 µM (≈ 18.8 µg/mL) | –
